For orientation: melting point means the temperature, or range, at which the solid turns liquid.

These results are taken from patent US20090054450A1, “COMPOSITIONS AND METHODS OF USE FOR TREATING OR PREVENTING LIPID RELATED DISORDERS” (IRONWOOD PHARMACEUTICALS, INC., priority 2007, published 2009).

Data set [1] relates to rat high fat, high cholesterol diet model. As to the kind of experiment: Rat High Fat, High Cholesterol Diet Model. It counts as in vivo. Particulars: HFHC diet rats; for HDL / LDL / VLDL: once daily perorally for seven days, serum VAP analysis, compound 13 at 3, 10, 30 mg/kg; for HDL / LDL / VLDL / blood glucose: compound 10A at 3, 10, or 30 mg/kg, compound 5A at 100 mg/kg; for blood glucose: seven days dosing. As for the experimental part: Fibrate and statin derivatives, alone and in combination, are tested for effects on cholesterol and lipid profiles in a rat high fat diet model for example as described in Ghibaudi et al. (2002) Obes Res 10:956-63, Ricci and Levin (2003) Am J Physiol Regul Integr Comp Physiol 285:R610-8, and Gao et al. (2002) 936:87-90. Alternatively, animals are fed either a normal diet or a chow supplemented with added fat and/or cholesterol as described in Krause et al (1994) Pharm Res Vol 29, No. 4, Nishina (1993) J of Lipid Res vol 43. and Gajda et al. (2007) Animal Lab News. Based on the specific chows used in these reports, we fed animals a diet consisting of 40% fat, 1% cholesterol, and 0.5% cholic acid (catalog #D01061201, Research Diets, New Brunswick, N.J. 08901). After at least a week on this diet, animals (6-8/group) are dosed once daily perorally with 300 uL test compounds in PEG 400 or suitable vehicle. Groups are dosed for at least one week before whole blood samples are taken for analysis. Blood serum is analyzed using Vertical Auto Profile (VAP; Atherotech, Inc., Birmingham, Ala.) analysis similar to as described in Kulkami (2006) Clin Lab Med 26:787-802.
Similarly, when tested in this assay, Compound 5A [(E)-4-(3,5-dimethoxystyryl)phenyl 2-(4-(4-chlorobenzoyl)phenoxy)-2-methylpropanoate] was associated with decreased LDL and VLDL, no change in blood glucose, and increased HDL. Graphical depictions showing the LDL, VLDL and HDL analyses for compounds 10A and 5A are shown in FIGS. 1, 2, and 3 respectively. Compound 13 (4-(nitrooxy)butyl 2-(4-(4-chlorobenzoyl)phenoxy)-2-methylpropanoate) was also tested in this assay. FIGS. 4-6 are graphs showing that Compound 13 decreased LDL (FIG. 4) and VLDL (FIG. 5) and increased HDL (FIG. 6). Fenofibrate was also tested in this assay at 2, 6.8 and 20.5 mg/kg (FIGS. 4-6) which are equimolar equivalents (for the fenofibric acid moiety) of Compound 10A dosed at […]. Similar untested dose equivalent amounts to Compound 13 at 3, 10, and 30 mg/kg would be 2.5, 8.3, and 24.8 mg/kg of fenofibrate. In these experiments animals (n=6 per group) were fed either a normal chow (chow) or high fat high cholesterol chow (HFHC; 40% fat, 1% cholesterol, 0.5% cholic acid) diet for one week before test compound administration. Animals received either no test compound (“naïve”), vehicle only (PEG 400) or test compound (compound 10A at 3, 10, or 30 mg/kg, compound 5A at 100 mg/kg, compound 13 at 3, 10, 30 mg/kg, or fenofibrate at 2, 6.8, or 20.5 mg/kg) for seven days before whole blood samples were taken for analysis. […] Compound 8A may be useful for another contemplated use described herein however.

Data set [2] in a line: Pharmacokinetic profile in blood plasma of ob/ob mice (LC/MS-MS). It counts as in vivo, mouse. How it is done:
The increased expression of plasma lipids in ob/ob mice make them a useful model for the study of drugs designed to lower cholesterol. In these experiments animals (n=10 per group) were fed a high fat chow (HF; 60% fat,) for one week before test compound administration and continued on this diet for the duration of the experiment. Animals received either vehicle only (PEG 400), or test compound (Compound 121 (resveratrol) at 43 or 1000 mg/kg, Compound 10A at 30 or 100 mg/kg, or fenofibrate at 68 mg/kg) perorally once daily for a total of three weeks. Blood samples were collected weekly for the determination of fasting glucose levels (One touch Ultra, LifeScan Inc). Blood serum was analyzed after three weeks using Vertical Auto Profile (VAP; Atherotech, Inc., Birmingham, Ala.) analysis similar to as described in Kulkami (2006) Clin Lab Med 26:787-802. […]
(§1) Various pharmacokinetic parameters were calculated by collecting plasma samples from animals dosed with a test compound and analyzed by LC/MS-MS. […] Concentrations were determined by relative responses to an internal standard and calculated based on a standard concentration curve of the test compound. […] Oral Bioavailability (Fn) was calculated using the equation: F=(AUCoral/AUCIV)*DoseIV.Doseoral). Cmax and Tmax are determined by visual inspection of the oral concentration curve. […]

The subject of data set [3] is ob/ob mice. As to the kind of experiment: Obese (ob/ob) Mouse Model, blood glucose. It is filed as in vivo. The settings on record: ob/ob mice on high fat chow, perorally once daily for three weeks, days 7, 14, 21; Compound 10A 30 and 100 mg/kg, Compound 121 43 or 1000 mg/kg, fenofibrate 68 mg/kg. How it is done: The increased expression of plasma lipids in ob/ob mice make them a useful model for the study of drugs designed to lower cholesterol. In these experiments animals (n=10 per group) were fed a high fat chow (HF; 60% fat,) for one week before test compound administration and continued on this diet for the duration of the experiment. Animals received either vehicle only (PEG 400), or test compound (Compound 121 (resveratrol) at 43 or 1000 mg/kg, Compound 10A at 30 or 100 mg/kg, or fenofibrate at 68 mg/kg) perorally once daily for a total of three weeks. Blood samples were collected weekly for the determination of fasting glucose levels (One touch Ultra, LifeScan Inc). Blood serum was analyzed after three weeks using Vertical Auto Profile (VAP; Atherotech, Inc., Birmingham, Ala.) analysis similar to as described in Kulkami (2006) Clin Lab Med 26:787-802. […] 43 mg/kg of compound 121 (resveratrol) and 68 mg/kg of fenofibrate are the equimolar equivalents to the amounts of resveratrol and fenofibric acid moieties in 100 mg/kg of Compound 10A. […] FIG. 8 is a pharmacokinetic profile (using the methodologies as described herein) analyzing fenofibric acid levels in blood plasma of ob/ob mice dosed with either 68 mg/kg of fenofibrate, or 30 mg/kg or 100 mg/kg of Compound 10A.

Data set [4] in a line: Pharmacokinetics in rat high fat high cholesterol diet model (LC/MS-MS). It is filed as in vivo. The settings on record: oral administration, vs compound 121 (resveratrol). As for the experimental part: Similarly, when tested in this assay, Compound 5A [(E)-4-(3,5-dimethoxystyryl)phenyl 2-(4-(4-chlorobenzoyl)phenoxy)-2-methylpropanoate] was associated with decreased LDL and VLDL, no change in blood glucose, and increased HDL. Graphical depictions showing the LDL, VLDL and HDL analyses for compounds 10A and 5A are shown in FIGS. 1, 2, and 3 respectively. Compound 13 (4-(nitrooxy)butyl 2-(4-(4-chlorobenzoyl)phenoxy)-2-methylpropanoate) was also tested in this assay. FIGS. 4-6 are graphs showing that Compound 13 decreased LDL (FIG. 4) and VLDL (FIG. 5) and increased HDL (FIG. 6). Fenofibrate was also tested in this assay at 2, 6.8 and 20.5 mg/kg (FIGS. 4-6) which are equimolar equivalents (for the fenofibric acid moiety) of Compound 10A dosed at […]. Similar untested dose equivalent amounts to Compound 13 at 3, 10, and 30 mg/kg would be 2.5, 8.3, and 24.8 mg/kg of fenofibrate. […]
as §1

For data set [5], the system named is ob/ob mice. Particulars: fenofibrate 100 mg/kg; McCarmona et al. (2005); cited from earlier work.

On to `COc1cc(/C=C/c2ccc(OC(=O)C(C)(C)Oc3ccc(C(=O)c4ccc(Cl)cc4)cc3)cc2)cc(OC)c1` [Compound 5A, (E)-4-(3,5-dimethoxystyryl)phenyl 2-(4-(4-chlorobenzoyl)phenoxy)-2-methylpropanoate], for which, in data set [1], the HDL entry was “increased”, the LDL result is “decreased”, the VLDL result is on record as “decreased” and the blood glucose entry was “no change”.

The compound `CC(=O)Oc1cc(/C=C/c2ccc(OC(=O)C(C)(C)Oc3ccc(C(=O)c4ccc(Cl)cc4)cc3)cc2)cc(OC(C)=O)c1` [Compound 8A, (E)-5-(4-(2-(4-(4-chlorobenzoyl)phenoxy)-2-methylpropanoyloxy)styryl)-1,3-phenylene diacetate] yielded a melting point of 112 to 113 °C. Besides, the “efficacy in rat high fat, high cholesterol diet model” value in data set [1] is given as “does not show any efficacy”.

Consider `CC(C)(Oc1ccc(C(=O)c2ccc(Cl)cc2)cc1)C(=O)Oc1ccc(/C=C/c2cc(O)cc(O)c2)cc1.Cl` [Compound 10A, (E)-4-(3,5-dihydroxystyryl)phenyl 2-(4-(4-chlorobenzoyl)phenoxy)-2-methylpropanoate], for which, in data set [1], the HDL entry is “increased”, the LDL entry is recorded as “dose related decreases”, the VLDL entry is “dose related decreases” and the blood glucose result was “decreased”. In data set [2] (ob/ob mice, 30 mg/kg Compound 10A as compared to 68 mg/kg fenofibrate), the “fenofibric acid exposure in blood plasma” value is listed as “less fenofibric acid exposure”. For the same compound, in data set [2] (obese mouse model, oral administration, 100 mg/kg Compound 10A vs 43 mg/kg compound 121 (resveratrol)), the resveratrol pharmacokinetic profile result was “different resveratrol pharmacokinetic profile”. The “blood glucose (fasting), change compared to day 0” value (“blood glucose (fasting), change” for short) in data set [3] is “statistically significant (when compared to day 0) decreases”. For the same compound, the resveratrol pharmacokinetic profile entry in data set [4] is listed as “different resveratrol pharmacokinetic profile”.

For the compound `CC(C)(Oc1ccc(C(=O)c2ccc(Cl)cc2)cc1)C(=O)OCCCCO[N+](=O)[O-]` [Compound 13, 4-(nitrooxy)butyl 2-(4-(4-chlorobenzoyl)phenoxy)-2-methylpropanoate], in data set [1], the HDL result is reported as “increased”, the LDL entry is “decreased” and the VLDL entry is “decreased”.

`Oc1ccc(/C=C/c2cc(O)cc(O)c2)cc1` [Compound 121, (E)-5-(4-hydroxystyryl)benzene-1,3-diol]: the “blood glucose (fasting), change” value in data set [3] is listed as “neither Compound 121 (resveratrol; dosed at 43 or 1000 mg/kg) or fenofibrate (dosed at 68 mg/kg) resulted in statistically significant changes”.

Take `CC(C)OC(=O)C(C)(C)Oc1ccc(C(=O)c2ccc(Cl)cc2)cc1` [fenofibrate, 2-[4-(4-chlorobenzoyl)phenoxy]-2-methyl-propanoic acid, 1-methylethyl ester]: in data set [3], the “blood glucose (fasting), change” value is given as “neither Compound 121 (resveratrol; dosed at 43 or 1000 mg/kg) or fenofibrate (dosed at 68 mg/kg) resulted in statistically significant changes”. For the same compound, the “blood glucose in ob/ob mice” value in data set [5] is given as “shown to decrease blood glucose”.
